The values below come from patent US20110294810A1, “SUBSTITUTED (PYRIDYL)-AZINYLAMINE DERIVATIVES AS PLANT PROTECTION AGENTS” (priority 2008, published 2011).

Series [1] in a line: Measurement of logP values by HPLC on reversed phase columns (EEC directive 79/831 Annex V.A8). In kind it is physicochemical. The following applies: for chromatographic logP: reversed phase HPLC column; for log p: pH 2.7.
For a further series, the system named is Phakopsora pachyrhizi. The experiment in a line: Phakopsora test (soybeans) / protective. It is filed as in vivo. The settings on record: 500 ppm of active ingredient, evaluated 11 days after inoculation. The protocol: Solvent: 28.5 parts by weight of acetone Emulsifier: 1.5 parts by weight of polyoxyethylene alkyl phenyl ether
To produce a suitable preparation of active compound, 1 part by weight of active compound is mixed with the stated amounts of solvent and emulsifier, and the concentrate is diluted with water to the desired concentration.
To test for protective activity, young plants are sprayed with the preparation of active compound at the stated rate of application. One day after spraying, the plants are inoculated with an aqueous spore suspension of the causal agent of soybean rust (Phakopsora pachyrhizi). The plants are then placed in a greenhouse at approximately 20° C. and a relative atmospheric humidity of approximately 80%.
The test is evaluated 11 days after the inoculation. 0% means an efficacy which corresponds to that of the control, while an efficacy of 100% means that no disease is observed.

The test system of the next series is Puccinia recondita. The experiment in a line: In vivo test on Puccinia recondita (brown rust), wheat plants. The following applies: 500 ppm, wheat plants sprayed 24 hours before contamination, grading 10 days after contamination. The protocol:
Wheat plants (Scipion variety) sown on 50/50 peat soil-pozzolana substrate in starter cups and grown at 12° C., are treated at the 1-leaf stage (10 cm tall) by spraying with the aqueous suspension described above. Plants, used as controls, are treated with an aqueous solution not containing the active material. After 24 hours, the plants are contaminated by spraying the leaves with an aqueous suspension of Puccinia recondita spores (100,000 spores per ml). […] The contaminated wheat plants are incubated for 24 hours at 20° C. and at 100% relative humidity, and then for 10 days at 20° C. and at 70% relative humidity. Grading is carried out 10 days after the contamination, in comparison with the control plants. Under these conditions, good (at least 70%) or total protection is observed at a dose of 500 ppm with the following compound: A4

The subject of the next series is Pyricularia oryzae. In kind it is in vivo. The following applies: 250 ppm of active ingredient, rice, protective, evaluated 5 days after inoculation.
For the next series, the system named is Cochliobolus miyabeanus. The experiment in a line: Cochliobolus test (rice) / protective. The following applies: 250 ppm of active ingredient, evaluated 4 days after inoculation. In kind it is in vivo.
The subject of the next series is Peronospora parasitica. Kind of series: In vivo test on Peronospora parasitica (crucifer downy mildew), cabbage plants. The settings on record: 500 ppm, cabbage plants sprayed 24 hours before contamination, grading 5 days after contamination. The protocol: Cabbage plants (Eminence variety) in starter cups, sown on a 50/50 peat soil-pozzolana substrate and grown at 18-20° C., are treated at the cotyledon stage by spraying with the aqueous suspension described above. Plants, used as controls, are treated with an aqueous solution not containing the active material. After 24 hours, the plants are contaminated by spraying them with an aqueous suspension of Peronospora parasitica spores (50 000 spores per ml). The spores are collected from infected plant. The contaminated cabbage plants are incubated for 5 days at 20° C., under a humid atmosphere. Grading is carried out 5 days after the contamination, in comparison with the control plants. Under these conditions, good (at least 70%) or total protection is observed at a dose of 500 ppm with the following compound: C2

Where [2] appears, read: HPLC on reversed phase columns, usually LC-MS at pH 2.7 with 0.1% formic acid in water and acetonitrile, linear gradient 10% to 95% acetonitrile, read-out: log p.

Like-named read-outs stand apart in the source and are kept apart here.

With `OCc1cc(-c2ccnc(Nc3cccc(Cl)c3)n2)ccn1` [Compound A14, (4-{2-[(3-chlorophenyl)amino]pyrimidin-4-yl}pyridin-2-yl)methanol], in series [1] (setting [2]), the chromatographic logP was found to be 1.91. The efficacy with Phakopsora pachyrhizi was not below 80%.

On to `CC(=O)NCc1cc(-c2ccnc(Nc3cccc(Cl)c3)n2)ccn1` [Compound A4], for which the log p in series [1] is listed as 2.03. Also, in the series on Puccinia recondita, the “protection (good, at least 70%, or total)” value is given as “at least 70%”.

Consider `CC(N)c1cc(-c2ncnc(Nc3cccc(Cl)c3)n2)ccn1` (stereo not shown) [Compound C2, 4-[2-(1-aminoethyl)pyridin-4-yl]-N-(3-chlorophenyl)-1,3,5-triazin-2-amine], for which the efficacy with Pyricularia oryzae and with Cochliobolus miyabeanus was not below 80% throughout. The chromatographic logP in series [1] (LC-MS at pH 7.8, 0.001 molar ammonium hydrogen carbonate in water, gradient 10% to 95% acetonitrile, read-out: log p [c]) was 1.81. The “protection (good, at least 70%, or total)” value with Peronospora parasitica is listed as “at least 70%”.

Molecule `CCCC(=O)NC(C)c1cc(-c2ccnc(Nc3cccc(Cl)c3)n2)ccn1` (stereo not shown) [Compound A90] came in with a log p in series [1] of 2.8.

In series [1], `CCSCCN(C=O)Cc1cc(-c2ccnc(Nc3cccc(Cl)c3)n2)ccn1` [Compound A96] gave a log p of 3.17.

The molecule `CCC(=O)OCc1cc(-c2ccnc(N(C(=O)CC)c3cccc(Cl)c3)n2)ccn1` [Example A28] yielded a log p in series [1] of 3.11.

As for `C=CCC(=O)OCc1cc(-c2ccnc(Nc3cccc(Cl)c3)n2)ccn1` [Compound A37, (4-{2-[(3-chlorophenyl)amino]pyrimidin-4-yl}pyridin-2-yl)methyl but-3-enoate], the chromatographic logP in series [1] (setting [2]) worked out at 3.64.

In the case of `CCC(C)CNC(=S)NCc1cc(-c2ccnc(Nc3cccc(Cl)c3)n2)ccn1` (stereo not shown) [Compound A6, 1-[(4-{2-[(3-chlorophenyl)amino]pyrimidin-4-yl}pyridin-2-yl)methyl]-3-(2-methylbutyl)thiourea], the chromatographic logP in series [1] (setting [2]) was found to be 3.59.
